Values quoted from earlier work in US20100150991A1, “Combination Wound Therapy” (priority 2008, published 2010).

Tests used:
[1] = topical application of gaseous nitric oxide
[2] = test system: neutrophil adhesion, platelets, and pro-inflammatory cutokines in the circulating blood; settings: doses of less than 80 ppm; by reducing neutrophil adhesion, platelets and pro-inflammatory cytokines in circulating blood
[3] = CO2 insufflation compared with air insufflation; van der Linden and Persson 2003
acute and chronic wounds = settings: topical CO2, acute and chronic wounds; Wollina et al 2004

SMILES | half life of NO in contact with tissues [1] [min] | anti-inflammatory effect [2] | rates of infection [3] | clinical evidence in wounds (acute and chronic wounds)
[N]=O [NO, nitric oxide] | 6 | anti-inflammatory effect |  | 
O=C=O [CO2, carbon dioxide] |  |  | lower rates of infection than air insufflation | increased granulation tissue and reduction of discharge and malodor
